Starred links: 1 amine or outer side, 2 acyl side, 3 side chain; linkers in the order of their positions; H or OH if unused. Non-standard residues stand in square brackets, D forms with d. Residues, ends and D or L forms follow the SMILES beside them. Groups on a side chain read outwards from the residue. *: point of attachment. C20 diacid = O=C(O)CCCCCCCCCCCCCCCCCCC(=O)*; γGlu = O=C(O)[C@H](CCC(=O)[*:2])N[*:1]; AEEA = NCCOCCOCC(=O)O; Aib = CC(C)(N)C(=O)O
Experiments:
[1] = Body weight of diet-induced-obesity mice after subcutaneous administration; type: in vivo, C57BL/6 mice; conditions: for rate of body weight change: DIO mice
Protocol: (§1) High-fat food-induced-obesity male C57BL/6 mice (weighing 35-55 g, aged 10-12 weeks, purchased from Shanghai Jiesijie Laboratory Animal Co., Ltd.) were tested. […] According to the experimental design, the body weight of each mouse was measured and recorded on day 0, day 3, day 6, and so on to day 27, the average body weight of each group of mice was calculated, and body weight change curves were plotted by taking the body weight on the first day as the standard. At the end, the fat and other visceral organs of each part of the mice were taken out and weighed, and the viscera/brain ratio for fat in each part of each mouse was calculated. The effect of the drug on the fat was determined by comparing the change in the viscera/brain ratio for fat of different parts of each group of mice.

[2] = Viscera/brain ratio for fat mass in diet-induced-obesity mice; type: in vivo, C57BL/6 mice; conditions: DIO mice; for viscera/brain ratio for fat mass, Epididymal fat / viscera/brain ratio for fat mass, Inguinal fat / viscera/brain ratio for fat mass, Mesenteric fat / viscera/brain ratio for fat mass, Perirenal fat / viscera/brain ratio for fat mass, Scapular fat / viscera/brain ratio for fat mass, Subcutaneous fat: X ± s
Protocol: as §1

For `CC[C@H](C)[C@H](NC(=O)[C@H](CCCCN)NC(=O)[C@H](CCC(=O)O)NC(=O)[C@H](CCCCNC(=O)COCCOCCNC(=O)COCCOCCNC(=O)CC[C@H](NC(=O)CCCCCCCCCCCCCCCCCCC(=O)O)C(=O)O)NC(=O)[C@H](Cc1ccc(O)cc1)NC(=O)[C@@H](NC(=O)[C@H](CO)NC(=O)[C@H](Cc1ccc(O)cc1)NC(=O)[C@H](CC(=O)O)NC(=O)[C@H](CO)NC(=O)[C@@H](NC(=O)[C@H](Cc1ccccc1)NC(=O)[C@@H](NC(=O)CNC(=O)[C@H](CCC(=O)O)NC(=O)C(C)(C)NC(=O)[C@@H](N)Cc1ccc(O)cc1)[C@@H](C)O)[C@@H](C)O)[C@@H](C)CC)C(=O)N[C@@H](C)C(=O)N[C@@H](C)C(=O)N[C@@H](CCC(N)=O)C(=O)N[C@@H](CCC(=O)O)C(=O)N[C@@H](Cc1ccccc1)C(=O)N[C@H](C(=O)N[C@@H](CC(N)=O)C(=O)N[C@@H](Cc1c[nH]c2ccccc12)C(=O)N[C@@H](CC(C)C)C(=O)N[C@@H](CC(C)C)C(=O)N[C@@H](C)C(=O)NCC(=O)NCC(=O)N1CCC[C@H]1C(=O)N[C@@H](CO)C(=O)N[C@@H](CO)C(=O)NCC(=O)N[C@@H](C)C(=O)N1CCC[C@H]1C(=O)N1CCC[C@H]1C(=O)N1CCC[C@H]1C(=O)N[C@@H](CO)C(N)=O)C(C)C` [Compound 18#] (H-Y[Aib]EGTFTSDYSIYK([AEEA-AEEA-γGlu-C20 diacid])EKIAAQEFVNWLLAGGPSSGAPPPS-NH2), the “rate of body weight change” value ([1]; 3 nmol/kg s.c. every 3 days, day 0 (before administration)) was 0%, the “rate of body weight change” value ([1]; 3 nmol/kg s.c. every 3 days, day 1) was −5% and the “rate of body weight change” value ([1]; 3 nmol/kg s.c. every 3 days, day 2) was −6.3%. For the same compound, the “rate of body weight change” value ([1]; 3 nmol/kg s.c. every 3 days, day 3) was −5.8%, the “rate of body weight change” value ([1]; 3 nmol/kg s.c. every 3 days, day 4) was −9.1% and the “rate of body weight change” value ([1]; 3 nmol/kg s.c. every 3 days, day 5) was −10.3%. The “rate of body weight change” value ([1]; 3 nmol/kg s.c. every 3 days, day 6) was −10%, the “rate of body weight change” value ([1]; 3 nmol/kg s.c. every 3 days, day 7) was −13% and the “rate of body weight change” value ([1]; 3 nmol/kg s.c. every 3 days, day 8) was −13.9%. The “rate of body weight change” value ([1]; 3 nmol/kg s.c. every 3 days, day 9) was −13.9%, the “rate of body weight change” value ([1]; 3 nmol/kg s.c. every 3 days, day 10) was −16.6% and the “rate of body weight change” value ([1]; 3 nmol/kg s.c. every 3 days, day 11) was −16.4%. The “rate of body weight change” value ([1]; 3 nmol/kg s.c. every 3 days, day 12) was −15.7%, the “rate of body weight change” value ([1]; 3 nmol/kg s.c. every 3 days, day 13) was −18.2% and the “rate of body weight change” value ([1]; 3 nmol/kg s.c. every 3 days, day 14) was −17.1%. The “rate of body weight change” value ([1]; 3 nmol/kg s.c. every 3 days, day 15) was −15.7%, the “rate of body weight change” value ([1]; 3 nmol/kg s.c. every 3 days, day 16) was −18.6% and the “rate of body weight change” value ([1]; 3 nmol/kg s.c. every 3 days, day 17) was −18.3%. The “rate of body weight change” value ([1]; 3 nmol/kg s.c. every 3 days, day 18) was −17.9%, the “rate of body weight change” value ([1]; 3 nmol/kg s.c. every 3 days, day 19) was −20.5% and the “rate of body weight change” value ([1]; 3 nmol/kg s.c. every 3 days, day 20) was −19.8%. For the same compound, the “rate of body weight change” value ([1]; 3 nmol/kg s.c. every 3 days, day 21) was −17.8%, the “rate of body weight change” value ([1]; 3 nmol/kg s.c. every 3 days, day 22) was −19.3% and the “rate of body weight change” value ([1]; 3 nmol/kg s.c. every 3 days, day 23) was −19.1%. The “rate of body weight change” value ([1]; 3 nmol/kg s.c. every 3 days, day 24) was −17.3%, the “rate of body weight change” value ([1]; 3 nmol/kg s.c. every 3 days, day 25) was −19.9% and the “rate of body weight change” value ([1]; 3 nmol/kg s.c. every 3 days, day 26) was −18.8%. The “rate of body weight change” value ([1]; 3 nmol/kg s.c. every 3 days, day 27) was −16.1%, the “rate of body weight change” value ([1]; 3 nmol/kg s.c. every 3 days, day 28) was −19.2% and the “rate of body weight change” value ([1]; 10 nmol/kg s.c. every 3 days, day 0 (before administration)) was 0%. The “rate of body weight change” value ([1]; 10 nmol/kg s.c. every 3 days, day 1) was −6.2%, the “rate of body weight change” value ([1]; 10 nmol/kg s.c. every 3 days, day 2) was −8.6% and the “rate of body weight change” value ([1]; 10 nmol/kg s.c. every 3 days, day 3) was −9.4%. For the same compound, the “rate of body weight change” value ([1]; 10 nmol/kg s.c. every 3 days, day 4) was −12.7%, the “rate of body weight change” value ([1]; 10 nmol/kg s.c. every 3 days, day 5) was −14.5% and the “rate of body weight change” value ([1]; 10 nmol/kg s.c. every 3 days, day 6) was −15%. For the same compound, the “rate of body weight change” value ([1]; 10 nmol/kg s.c. every 3 days, day 7) was −18.3%, the “rate of body weight change” value ([1]; 10 nmol/kg s.c. every 3 days, day 8) was −20.1% and the “rate of body weight change” value ([1]; 10 nmol/kg s.c. every 3 days, day 9) was −20.3%. The “rate of body weight change” value ([1]; 10 nmol/kg s.c. every 3 days, day 10) was −23.4%, the “rate of body weight change” value ([1]; 10 nmol/kg s.c. every 3 days, day 11) was −23.9% and the “rate of body weight change” value ([1]; 10 nmol/kg s.c. every 3 days, day 12) was −23.5%. The “rate of body weight change” value ([1]; 10 nmol/kg s.c. every 3 days, day 13) was −26.4%, the “rate of body weight change” value ([1]; 10 nmol/kg s.c. every 3 days, day 14) was −25.1% and the “rate of body weight change” value ([1]; 10 nmol/kg s.c. every 3 days, day 15) was −23.4%. The “rate of body weight change” value ([1]; 10 nmol/kg s.c. every 3 days, day 16) was −26.6%, the “rate of body weight change” value ([1]; 10 nmol/kg s.c. every 3 days, day 17) was −25.7% and the “rate of body weight change” value ([1]; 10 nmol/kg s.c. every 3 days, day 18) was −24.6%. For the same compound, the “rate of body weight change” value ([1]; 10 nmol/kg s.c. every 3 days, day 19) was −27.5%, the “rate of body weight change” value ([1]; 10 nmol/kg s.c. every 3 days, day 20) was −27.3% and the “rate of body weight change” value ([1]; 10 nmol/kg s.c. every 3 days, day 21) was −24.8%. For the same compound, the “rate of body weight change” value ([1]; 10 nmol/kg s.c. every 3 days, day 22) was −28.1%, the “rate of body weight change” value ([1]; 10 nmol/kg s.c. every 3 days, day 23) was −27.1% and the “rate of body weight change” value ([1]; 10 nmol/kg s.c. every 3 days, day 24) was −26%. For the same compound, the “rate of body weight change” value ([1]; 10 nmol/kg s.c. every 3 days, day 25) was −28.5%, the “rate of body weight change” value ([1]; 10 nmol/kg s.c. every 3 days, day 26) was −27.8% and the “rate of body weight change” value ([1]; 10 nmol/kg s.c. every 3 days, day 27) was −24.8%. The “rate of body weight change” value ([1]; 10 nmol/kg s.c. every 3 days, day 28) was −28.2%, the “rate of body weight change” value ([1]; 100 nmol/kg s.c. every 3 days, day 0 (before administration)) was 0% and the “rate of body weight change” value ([1]; 100 nmol/kg s.c. every 3 days, day 1) was −6.3%. For the same compound, the “rate of body weight change” value ([1]; 100 nmol/kg s.c. every 3 days, day 2) was −10.9%, the “rate of body weight change” value ([1]; 100 nmol/kg s.c. every 3 days, day 3) was −13.2% and the “rate of body weight change” value ([1]; 100 nmol/kg s.c. every 3 days, day 4) was −15.7%. For the same compound, the “rate of body weight change” value ([1]; 100 nmol/kg s.c. every 3 days, day 5) was −19.2%, the “rate of body weight change” value ([1]; 100 nmol/kg s.c. every 3 days, day 6) was −21.8% and the “rate of body weight change” value ([1]; 100 nmol/kg s.c. every 3 days, day 7) was −24.7%. The “rate of body weight change” value ([1]; 100 nmol/kg s.c. every 3 days, day 8) was −27.6%, the “rate of body weight change” value ([1]; 100 nmol/kg s.c. every 3 days, day 9) was −29.6% and the “rate of body weight change” value ([1]; 100 nmol/kg s.c. every 3 days, day 10) was −31.6%. The “rate of body weight change” value ([1]; 100 nmol/kg s.c. every 3 days, day 11) was −33.7%, the “rate of body weight change” value ([1]; 100 nmol/kg s.c. every 3 days, day 12) was −34.4% and the “rate of body weight change” value ([1]; 100 nmol/kg s.c. every 3 days, day 13) was −35.6%. The “rate of body weight change” value ([1]; 100 nmol/kg s.c. every 3 days, day 14) was −36.7%, the “rate of body weight change” value ([1]; 100 nmol/kg s.c. every 3 days, day 15) was −35.7% and the “rate of body weight change” value ([1]; 100 nmol/kg s.c. every 3 days, day 17) was −38.2%. The “rate of body weight change” value ([1]; 100 nmol/kg s.c. every 3 days, day 18) was −37.8%, the “rate of body weight change” value ([1]; 100 nmol/kg s.c. every 3 days, day 19) was −38.5% and the “rate of body weight change” value ([1]; 100 nmol/kg s.c. every 3 days, day 20) was −39%. For the same compound, the “rate of body weight change” value ([1]; 100 nmol/kg s.c. every 3 days, day 21) was −37.4%, the “rate of body weight change” value ([1]; 100 nmol/kg s.c. every 3 days, day 22) was −38.3% and the “rate of body weight change” value ([1]; 100 nmol/kg s.c. every 3 days, day 23) was −38%. For the same compound, the “rate of body weight change” value ([1]; 100 nmol/kg s.c. every 3 days, day 24) was −36.8%, the “rate of body weight change” value ([1]; 100 nmol/kg s.c. every 3 days, day 25) was −38.6% and the “rate of body weight change” value ([1]; 100 nmol/kg s.c. every 3 days, day 26) was −38.9%. The “rate of body weight change” value ([1]; 100 nmol/kg s.c. every 3 days, day 27) was −36.8%, the “rate of body weight change” value ([1]; 100 nmol/kg s.c. every 3 days, day 28) was −37.9% and the body weight reduced ([1]; high-fat food-induced-obesity mice, 10 nmol/kg, day 27) was “more than 20.0%”. The “viscera/brain ratio for fat mass, Epididymal fat” value ([2]; 3 nmol/kg) was 254.6 ± 113.4 %, the “viscera/brain ratio for fat mass, Inguinal fat” value ([2]; 3 nmol/kg) was 281.5 ± 140.1 % and the “viscera/brain ratio for fat mass, Mesenteric fat” value ([2]; 3 nmol/kg) was 84.8 ± 41.3 %. The “viscera/brain ratio for fat mass, Perirenal fat” value ([2]; 3 nmol/kg) was 159.2 ± 87.6 %, the “viscera/brain ratio for fat mass, Scapular fat” value ([2]; 3 nmol/kg) was 48 ± 15.3% and the “viscera/brain ratio for fat mass, Subcutaneous fat” value ([2]; 3 nmol/kg) was 129 ± 62 %. For the same compound, the “viscera/brain ratio for fat mass, Epididymal fat” value ([2]; 10 nmol/kg) was 211.7 ± 80.7 %, the “viscera/brain ratio for fat mass, Inguinal fat” value ([2]; 10 nmol/kg) was 194.4 ± 86.2 % and the “viscera/brain ratio for fat mass, Mesenteric fat” value ([2]; 10 nmol/kg) was 53.3 ± 14.6 %. The “viscera/brain ratio for fat mass, Perirenal fat” value ([2]; 10 nmol/kg) was 109.4 ± 57.1 %, the “viscera/brain ratio for fat mass, Scapular fat” value ([2]; 10 nmol/kg) was 42.5 ± 17% and the “viscera/brain ratio for fat mass, Subcutaneous fat” value ([2]; 10 nmol/kg) was 122 ± 73.2 %. The “viscera/brain ratio for fat mass, Epididymal fat” value ([2]; 100 nmol/kg) was 102.9 ± 32.2 %, the “viscera/brain ratio for fat mass, Inguinal fat” value ([2]; 100 nmol/kg) was 92 ± 34.5 % and the “viscera/brain ratio for fat mass, Mesenteric fat” value ([2]; 100 nmol/kg) was 27.4 ± 11.1 %. The “viscera/brain ratio for fat mass, Perirenal fat” value ([2]; 100 nmol/kg) was 46.6 ± 18.2 %, the “viscera/brain ratio for fat mass, Scapular fat” value ([2]; 100 nmol/kg) was 32.3 ± 7% and the “viscera/brain ratio for fat mass, Subcutaneous fat” value ([2]; 100 nmol/kg) was 57.1 ± 21.2 %. The “content of fat of each part (except scapular fat) relative to placebo” value ([2]; all dose test groups) was “significantly reduced”.
